Experimental data from patent US12440440B2, “Dry powder esketamine composition for use in the treatment of bipolar depression by pulmonary administration” (Novohale Therapeutics, LLC, priority 2017, dated 2025).
Structures can show the parent of a compound that is named as a salt.

Columns and labels:
[1] = nebulized saline solution, inhalation; cited from earlier work
[2] = in vivo; cited from earlier work
[3] = cited from earlier work
[4] = cited from earlier work; remark: listed apart in the source
[5] = Predicted esketamine plasma concentration for 0.20 mg/kg 40 minutes intravenous infusion; format: in vivo; conditions: human, 0.2 mg/kg, predicted on the basis of literature data
Protocol: The aim of the study was to determine the amount of puffs needed to obtain plasma concentration similar to that sufficient to achieve antidepressant effect as for 0.20 mg/kg 40 minutes intravenous infusion. It can be predicted on the basis of literature data that this corresponds to concentration at 40 min of infusion between about 60 to 100 ng/ml. It was also the aim to determine the number of puffs that allow to avoid a sharp peak of plasma concentration that is considered an important factor inducing adverse psychomimetic and dissociative effects.

[6] = 40-minute i.v. infusion of 0.20 mg/kg or 0.40 mg/kg, TRD patients; cited from earlier work
NMDA receptor = conditions: cited from earlier work
[7] = i.v. infusion of racemic ketamine
[8] = oral administration of ketamine

CN[C@]1(c2ccccc2Cl)CCCCC1=O [esketamine hydrochloride]
inhaled bioavailability [1]: reduced

CNC1(c2ccccc2Cl)CCCCC1=O (racemic) [ketamine]
proportion of patients with treatment-resistant depression responsive to treatment [2]: about ⅔
half-period of concentration fall ([3]; after i.v. infusion 0.5 mg/kg for 40 minutes): below 2 hours
systemic concentration of parent drug ([3]; i.v. infusion 0.5 mg/kg for 40 minutes, maintained for about 40 minutes): about 200 ng/ml
bioavailability ([4]; orally administered): 16-20%

CN[C@]1(c2ccccc2Cl)CCCCC1=O [esketamine]
concentration at 40 min [5]: 60 to 100 ng/mL
antidepressant effects [6]: rapid onset of robust antidepressant effects

NC1(c2ccccc2Cl)CCCCC1=O (stereo not drawn) [norketamine]
activity on NMDA receptor relative to ketamine (NMDA receptor): many times less active than ketamine
maximum concentration as level of ketamine concentration [3, 7]: 10-20%
percentage of AUC norketamine to ketamine [3, 7]: 20-40%
AUC for norketamine relative to ketamine [4, 8]: exceeding 1000%
norketamine level relative to ketamine level [4, 8]: 500-1000%
